Where two headings read alike, the source gives them in different places.

Data set [1] addresses T1, GSK-3β (N-terminal His6-tagged recombinant human GSK3β with an H350L mutation) (Homo sapiens, UniProt P49841).
T1 construct: His6 (N); purchased EMD Millipore, Billerica, MA, USA
The experiment in a line: GSK-3β luminescent (Kinase-Glo) inhibition assay. It counts as biochemical. The protocol:
(§1) The assay is based on the phosphorylation of a peptide by the enzyme with ATP as phosphate donor. ATP, luciferin, and oxygen react to oxyluciferin, which is measured as a luminescence signal. The more the enzyme is inhibited, the stronger the luminescence signals are because of high ATP levels. 20 μL substrate solution (2 μM ATP, 40 μM peptide HSSPHQ-pSer-EDEEE (BIOSYNTAN, Berlin, Germany)) and 10 μL enzyme solution (12 mU GSK-3β (N-terminal His6-tagged recombinant human GSK3β with an H350L mutation, EMD Millipore, Billerica, MA, USA)) were incubated for 60 min at 25 °C. Then 40 μL Kinase-Glo reagent (Kinase-Glo Luminescent Assay Kit, Promega, Darmstadt, Germany) was added. After centrifugation and incubation for 10 min at 25 °C, the luminescence was measured. […] The antimicrobial activities of compounds 1, 2, and 3 against the bacterium Bacillus subtilis (DSM 347) and the human pathogenic yeast Candida albicans (DSM 1386) were determined according to Ohlendorf et al.. The determination of inhibitory activities against Xanthomonas campestris, Septoria tritici, and Propionibacterium acnes, as well as the cytotoxic activity against the cell line […] was carried out as described by Schneemann et al..
(In general: In Kinase-Glo more light means more ATP remaining.)

For data set [2], the system named is Bacillus subtilis (DSM 347). Description: Growth inhibition of Bacillus subtilis. The data set is classed as cell-based. The protocol: as §1
The next data set deals with Staphylococcus lentus. The experiment in a line: Growth inhibition of Staphylococcus lentus. The data set is classed as cell-based. To be noted: Mammaliicoccus lentus; test concentration of 100 μM; read-out: inhibition of growth of S. lentus.
The next data set relates to HepG2. The experiment in a line: Cytotoxic activity against cancer cell line HepG2. To be noted: concentration not given. The protocol: as §1
Data set [3] has as its system HMGCoA (3-hydroxy-3-methylglutaryl coenzyme A reductase). Also on record: method as in PMID 1880066. To be noted: cited from earlier work.
Setting [4] is: luminescent assay, 2 μM ATP substrate solution, 60 min at 25 °C.
[5] abbreviates: DSM347, read-out: inhibition of growth of B. subtilis.

T1 sequence (P49841 whole entry, stated change not applied): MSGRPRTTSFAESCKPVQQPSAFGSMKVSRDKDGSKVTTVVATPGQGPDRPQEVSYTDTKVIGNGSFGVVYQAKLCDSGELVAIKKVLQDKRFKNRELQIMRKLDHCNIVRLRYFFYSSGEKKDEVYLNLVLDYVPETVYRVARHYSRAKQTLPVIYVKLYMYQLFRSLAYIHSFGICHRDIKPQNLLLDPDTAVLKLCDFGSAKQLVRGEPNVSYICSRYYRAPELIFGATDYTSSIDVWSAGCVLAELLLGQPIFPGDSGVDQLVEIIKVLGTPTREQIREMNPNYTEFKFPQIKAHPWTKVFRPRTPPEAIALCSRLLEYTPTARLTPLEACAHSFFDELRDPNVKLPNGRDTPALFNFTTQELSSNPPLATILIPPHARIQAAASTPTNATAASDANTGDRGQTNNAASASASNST

Take `COc1cc(O)c2c(=O)oc3cc(O)cc(C)c3c2c1` [Compound 3, alternariol-9-methylether]: the IC50 in data set [1] came to 200 ± 20 nM. Also, the “IC50 of GSK-3β inhibition” value in data set [1] (setting [4]) is given as “sub-μM”. Besides, the inhibition at 100 µM in data set [2] (setting [5]) was 82%; in the data set on Staphylococcus lentus, 25%. For the same molecule, the “inhibition (cytotoxic effect) of cancer cell line HepG2” value (“inhibition (cytotoxic effect)” below) in the data set on HepG2 is listed as “lower than 35%”.

Consider `Cc1cc(O)cc2oc(=O)c3c(O)cc(O)cc3c12` [Compound 2, alternariol], for which the 50% inhibitory concentration (IC50) in data set [1] stood at 130 ± 40 nM. Moreover, the “IC50 of GSK-3β inhibition” value in data set [1] (setting [4]) was “sub-μM”. Further, the inhibition at 100 µM is 79% in data set [2] (setting [5]) and 66% in the data set with Staphylococcus lentus. Also, in the data set with HepG2, the “inhibition (cytotoxic effect)” value is given as “lower than 35%”.

As to `Cc1cc2cc(O)cc(O)c2c2oc(=O)cc(O)c12` [Compound 1, pannorin], the “IC50 of GSK-3β inhibition” value in data set [1] (setting [4]) is given as “sub-μM”. Also, the half-inhibitory concentration (IC50) in data set [1] (luminescent assay, 2 μM ATP substrate solution, 60 min at 25 °C, read-out: IC50 of GSK-3β inhibition) was determined as 350 ± 40 nM. Further, the inhibition at 100 µM in data set [2] (DSM347, test concentration of 100 μM, read-out: inhibition of growth of B. subtilis) is 54%; in the data set on Staphylococcus lentus it was 88%. Further, the “inhibition (cytotoxic effect)” value in the data set on HepG2 is reported as “lower than 35%”. Further, the “HMGCoA reductase inhibiting activity” value in data set [3] is listed as “inhibiting activity”.

Broadly, the IC50 is the concentration that gives 50% inhibition. As a reminder, the inhibition is the change of the read-out against control, counted positive when it falls.

(Values after PMC5128743, “Marine Fungi as Producers of Benzocoumarins, a New Class of Inhibitors of Glycogen-Synthase-Kinase 3β” (Marine Drugs, 2016).)
